This test has as its system opioid-induced respiratory depression. In words: Opioid-induced respiratory depression in the monkey. In kind it is in vivo, Macaca fascicularis. To be noted: 0.20 mg/kg/min 5 min, then 0.10 mg/kg/min 10 min. As to the method:
Juvenile macaques (four-year-old Macaca fascicularis, 2 to 5 kg, n=13) were used for the study. Animal husbandry was conducted under USDA guidelines and the protocols were approved by the Institutional Animal Care and Use Committee of East Carolina University.
Anesthesia was induced with 5% isoflurane and then maintained with 1.5 to 2% isoflurane (100% O2, 2 L/min). Antebrachial veins were cannulated. Vivometrics Lifeshirts (Ventura, Calif.) were fitted to the animals for monitoring respiratory function by inductance plethysmography. Abdomen and rib cage deflections were calibrated using the Qualitative Diagnostic Calibration (QDC) procedure, and tidal volume was normalized to 15 mL, which represented a typical tidal volume for these animals as previously measured using conventional techniques. Heart rate was monitored continuously by 3-lead ECG.
ETCO2 was measured via a neonatal nasal cannula connected to a microstream CO2 sensor (Cardell monitor, Model 9405). SpO2 and HR were monitored by pulse oximetry using a reflectance probe (Nelcor Max-Fast) positioned on the inner aspect of the upper arm. HR was also determined from the ECG allowing measurement when animal activity compromised the integrity of pulse oximetry signals. BP was measured in anesthetized animals using a cuff positioned on the ankle. […]

As for `CCCNc1nc(NCCC)nc(N(C)OC)n1.O=S(=O)(O)O` [XXXVI, N-(4,6-Bis-n-propylamino-[1,3,5]triazin-2-yl)-N,O-dimethyl-hydroxylamine hydrogen sulfate], the “end-tidal carbon dioxide increases caused by the opioid” value was “full reversal” and the minute ventilation result is “increased minute ventilation”.

Values taken from US9162992B2, “Compounds and compositions for treatment of breathing control disorders or diseases” (GALLEON PHARMACEUTICALS, INC., priority 2010, dated 2015).
